The values below are quoted from earlier work in patent US8163312B2, “Herbal formulation for prevention and treatment of diabetes and associated complications” (Innoveda Biological Solutions (P) Ltd., priority 2008, dated 2012).

One data set deals with T1, PPAR-alpha (Homo sapiens, UniProt Q07869).
T1 construct: host or cells: human embryonic kidney 293 cells
T1 sequence (Q07869 1-468): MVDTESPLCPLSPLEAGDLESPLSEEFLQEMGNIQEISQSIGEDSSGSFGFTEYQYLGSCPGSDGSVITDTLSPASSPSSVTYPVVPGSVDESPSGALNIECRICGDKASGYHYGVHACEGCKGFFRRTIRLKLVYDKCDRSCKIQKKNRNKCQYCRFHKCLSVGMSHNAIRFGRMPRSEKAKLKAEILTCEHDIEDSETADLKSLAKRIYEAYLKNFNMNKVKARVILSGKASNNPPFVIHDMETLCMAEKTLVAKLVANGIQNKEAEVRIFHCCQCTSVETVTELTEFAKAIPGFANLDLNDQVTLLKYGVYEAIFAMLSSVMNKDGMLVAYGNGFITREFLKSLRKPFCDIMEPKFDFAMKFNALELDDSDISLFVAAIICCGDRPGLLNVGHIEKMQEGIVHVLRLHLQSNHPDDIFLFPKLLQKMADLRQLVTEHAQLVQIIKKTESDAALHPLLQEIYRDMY
The following applies: selective PPAR-alpha antagonist added.

The next data set concerns mice. Conditions: sanjoinine-A given as one unit.
Data set [1] relates to alloxan induced diabetic rats.

For `CC(C)c1ccc2c(c1)c(SC(C)(C)C)c(CC(C)(C)C(=O)O)n2Cc1ccc(Cl)cc1` [MK-886], the “effects of SO extract and mangiferin on PPAR-alpha luciferase and lipoprotein lipase” value on PPAR-alpha is reported as “completely suppressed”.

As to `CN(C)CCCN1c2ccccc2Sc2ccc(Cl)cc21` [chlorpromazine], the relative sedative potency in the data set on mice was 5.

For the compound `COc1cc(/C=C/C(=O)CC(=O)/C=C/c2ccc(O)c(OC)c2)ccc1O` [curcumin], in data set [1], the “activity of SDH (sorbitol dehydrogenase)” value is “lowered significantly”; the “blood sugar, Hb and glycosylated hemoglobin levels” value is on record as “reduced”; the “oxidative stress (levels of TBRAS)” value is listed as “reduced the oxidative stress”.

For the compound `COc1cc2ccnc3c2c(c1OC)-c1ccccc1C3=O` [lysicamine], the relative sedative potency in the data set with mice is 6.5.

Consider `CC(C)C[C@@H]1NC(=O)[C@@H](NC(=O)[C@H](Cc2ccccc2)N(C)C)[C@H](C(C)C)Oc2ccc(cc2)/C=C\NC1=O` [sanjoinine-A], for which the relative sedative potency result in the data set with mice is reported as “one”.

In the case of sanjoinine-Ahl, in the data set with mice, the relative sedative potency is listed as 3.
